The results in this text go back to the supplement of paper PMC10331698.

± gives the standard deviation of the averaged measurements.

What all share (assay): level (log10 ratio to DMSO vehicle control); higher = higher biomarker level / cell amount than vehicle control
Conditions in all cases: in DMSO

Compound in assay [1]: O=C(O)C=CC(F)(C(F)(F)F)C(F)(F)F [3-(Perfluoroisopropyl)-2-propenoic acid]
The procedure: (§1)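 BioMAP Diversity Plus panel of 12 human primary cell co-culture systems (3C, 4H, LPS, SAg, BT, BF4T, BE3C, CASM3C, HDF3CGF, KF3CT, MyoF, Mphg). Compounds were added 1 h before stimulation and left for 24 h (MyoF 48 h; BT 72 h for soluble read-outs or 6 d for IgG). Biomarkers were read by ELISA, cytotoxicity by SRB, PBMC viability and proliferation by Alamar Blue. Each well value was divided by the mean of 8 DMSO control wells on the same plate and log10 transformed; duplicate blinded samples were tested at 4 concentrations.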

Compound in assay [2]: NS(=O)(=O)C(F)(F)C(F)(F)C(F)(F)C(F)(F)C(F)(F)C(F)(F)F [Perfluorohexanesulfonamide]
The procedure:
as §1

Compound in the next assay: OCC(F)(F)C(F)(F)C(F)(F)CO [Hexafluoroamylene glycol]
On the procedure: as §1

Compound in assay [3]: FC(F)(F)C(F)(F)C(F)(F)CC1CO1 [1H,1H-Heptafluorobutyl epoxide]
On the procedure: as §1

Compound in assay [4]: FC(F)(F)C(F)(F)C(F)(F)C(F)(F)C(F)(F)C(F)(F)CC1CO1 [3-(Perfluorohexyl)-1,2-epoxypropane]
On the procedure: as §1

For the test system BF4T:CD90, the “level (log10)” value in assay [1] (6700 nM) was -0.0005 ± 0.013; in assay [1] (20000 nM), -0.0105 ± 0.0035; in assay [1] (60000 nM), 0.018 ± 0.0028; in assay [2] (6700 nM) it was -0.0055 ± 0.00071; in assay [2] (20000 nM), -0.0085 ± 0.0078; in assay [2] (60000 nM) it was -0.035 ± 0.0099. Also, the “level (log10)” value was -0.012 ± 0.0028 in the assay with Hexafluoroamylene glycol (6700 nM); -0.017 in the assay with Hexafluoroamylene glycol (20000 nM); -0.004 ± 0.011 with Hexafluoroamylene glycol (60000 nM); -0.026 ± 0.014 in assay [3] (6700 nM); -0.0175 ± 0.0092 in assay [3] (20000 nM); -0.0125 ± 0.0078 in assay [3] (60000 nM). Also, the “level (log10)” value in assay [4] (6700 nM) was -0.005 ± 0.0042; in assay [4] (20000 nM), -0.0055 ± 0.0092; in assay [4] (60000 nM), 0.0085 ± 0.028.

Turning to BF4T:CD106/VCAM-1, the “level (log10)” value in assay [1] (6700 nM) was -0.0095 ± 0.04; in assay [1] (20000 nM) it was -0.0275 ± 0.025; in assay [1] (60000 nM) it was 0.0225 ± 0.019; in assay [2] (6700 nM) it was -0.0295 ± 0.022; in assay [2] (20000 nM) it was -0.104 ± 0.0099; in assay [2] (60000 nM), -0.198 ± 0.013. The “level (log10)” value with Hexafluoroamylene glycol (6700 nM) was -0.0015 ± 0.023; in the assay with Hexafluoroamylene glycol (20000 nM), 0.0045 ± 0.023; with Hexafluoroamylene glycol (60000 nM) it was 0.034 ± 0.025; in assay [3] (6700 nM) it was -0.0055 ± 0.015; in assay [3] (20000 nM), -0.015 ± 0.017; in assay [3] (60000 nM), -0.021 ± 0.0071. Further, the “level (log10)” value stood at 0.0195 ± 0.0021 in assay [4] (6700 nM), 0.017 ± 0.0028 in assay [4] (20000 nM) and 0.0275 ± 0.028 in assay [4] (60000 nM).

For BF4T:CXCL8/IL-8, the “level (log10)” value in assay [1] (6700 nM) is 0.0055 ± 0.012; in assay [1] (20000 nM), -0.0015 ± 0.0064; in assay [1] (60000 nM), 0.001 ± 0.021; in assay [2] (6700 nM) it was -0.031 ± 0.052; in assay [2] (20000 nM), -0.051 ± 0.034; in assay [2] (60000 nM), -0.073 ± 0.02. Besides, the “level (log10)” value in the assay with Hexafluoroamylene glycol (6700 nM) was -0.018; with Hexafluoroamylene glycol (20000 nM) it was -0.002 ± 0.0014; with Hexafluoroamylene glycol (60000 nM) it was 0.0175 ± 0.033; in assay [3] (6700 nM), 0.023 ± 0.041; in assay [3] (20000 nM) it was 0.0165 ± 0.03; in assay [3] (60000 nM) it was 0.0325 ± 0.05. Further, the entries for the “level (log10)” value in assay [4] (6700 nM), in assay [4] (20000 nM) and in assay [4] (60000 nM) were 0.013 ± 0.02, -0.02 ± 0.028 and 0.0075 ± 0.0064, respectively.

For the test system BF4T:IL-1alpha, the “level (log10)” value in assay [1] (6700 nM) was -0.002 ± 0.021; in assay [1] (20000 nM) it was 0.0065 ± 0.011; in assay [1] (60000 nM), 0.012 ± 0.0057; in assay [2] (6700 nM), -0.006 ± 0.0042; in assay [2] (20000 nM) it was -0.008 ± 0.017; in assay [2] (60000 nM) it was -0.0675 ± 0.016. The “level (log10)” value in the assay with Hexafluoroamylene glycol (6700 nM) is -0.001 ± 0.014; in the assay with Hexafluoroamylene glycol (20000 nM), -0.0175 ± 0.0035; in the assay with Hexafluoroamylene glycol (60000 nM) it was 0.0075 ± 0.029; in assay [3] (6700 nM), 0.0165 ± 0.015; in assay [3] (20000 nM) it was 0.0095 ± 0.016; in assay [3] (60000 nM), 0.0355 ± 0.053. In addition, the entries for the “level (log10)” value in assay [4] (6700 nM), in assay [4] (20000 nM) and in assay [4] (60000 nM) were 0.003 ± 0.0071, -0.0135 ± 0.005 and 0.013 ± 0.028, respectively.

Turning to BF4T:Keratin 8/18, the “level (log10)” value in assay [1] (6700 nM) was -0.018 ± 0.028; in assay [1] (20000 nM), -0.0135 ± 0.0021; in assay [1] (60000 nM), -0.0035 ± 0.044; in assay [2] (6700 nM), -0.01 ± 0.033; in assay [2] (20000 nM), -0.019 ± 0.017; in assay [2] (60000 nM) it was -0.065 ± 0.067. Besides, the “level (log10)” value in the assay with Hexafluoroamylene glycol (6700 nM) was 0.0045 ± 0.018; with Hexafluoroamylene glycol (20000 nM) it was -0.0075 ± 0.0092; with Hexafluoroamylene glycol (60000 nM) it was 0.0125 ± 0.013; in assay [3] (6700 nM), -0.001 ± 0.011; in assay [3] (20000 nM), -0.0025 ± 0.0064; in assay [3] (60000 nM), -0.0235 ± 0.0078. Further, the figures for the “level (log10)” value in assay [4] (6700 nM), in assay [4] (20000 nM) and in assay [4] (60000 nM) were -0.0045 ± 0.03, -0.014 ± 0.011 and 0.015 ± 0.037, respectively.

Consider BF4T:MMP-1, for which the “level (log10)” value in assay [1] (6700 nM) was -0.0055 ± 0.012; in assay [1] (20000 nM), -0.0055 ± 0.0035; in assay [1] (60000 nM) it was 0.017 ± 0.03; in assay [2] (6700 nM), 0 ± 0.0014; in assay [2] (20000 nM) it was -0.012 ± 0.0042; in assay [2] (60000 nM), -0.018 ± 0.0014. Besides, the “level (log10)” value with Hexafluoroamylene glycol (6700 nM) is -0.0105 ± 0.005; with Hexafluoroamylene glycol (20000 nM), -0.007 ± 0.0014; in the assay with Hexafluoroamylene glycol (60000 nM), 0 ± 0.0085; in assay [3] (6700 nM), 0.014 ± 0.02; in assay [3] (20000 nM), 0.009 ± 0.024; in assay [3] (60000 nM), 0.019 ± 0.048. Besides, the “level (log10)” value in assay [4] (6700 nM) was -0.003 ± 0.0057; in assay [4] (20000 nM) it was 0.0045 ± 0.0021; in assay [4] (60000 nM), 0.023 ± 0.027.

Turning to BF4T:MMP-3, the “level (log10)” value was -0.003 ± 0.014 in assay [1] (6700 nM); -0.0035 ± 0.015 in assay [1] (20000 nM); 0.0205 ± 0.033 in assay [1] (60000 nM); -0.0185 ± 0.00071 in assay [2] (6700 nM); -0.011 ± 0.0042 in assay [2] (20000 nM); 0.0695 ± 0.061 in assay [2] (60000 nM). Further, the “level (log10)” value was -0.016 ± 0.037 with Hexafluoroamylene glycol (6700 nM); -0.0205 ± 0.028 with Hexafluoroamylene glycol (20000 nM); 0.011 ± 0.042 with Hexafluoroamylene glycol (60000 nM); 0.003 ± 0.0028 in assay [3] (6700 nM); 0.0005 ± 0.0035 in assay [3] (20000 nM); -0.008 ± 0.02 in assay [3] (60000 nM). The entries for the “level (log10)” value in assay [4] (6700 nM), in assay [4] (20000 nM) and in assay [4] (60000 nM) were 0.0155 ± 0.011, 0.018 ± 0.024 and 0.0475 ± 0.03, respectively.

For BF4T:MMP-9, the “level (log10)” value in assay [1] (6700 nM) was 0.0015 ± 0.029; in assay [1] (20000 nM) it was 0.004 ± 0.0099; in assay [1] (60000 nM), 0.025 ± 0.04; in assay [2] (6700 nM) it was 0.0205 ± 0.021; in assay [2] (20000 nM), 0.011 ± 0.0085; in assay [2] (60000 nM), -0.003 ± 0.0085. Also, the “level (log10)” value is -0.0045 ± 0.011 in the assay with Hexafluoroamylene glycol (6700 nM); -0.0165 ± 0.0035 with Hexafluoroamylene glycol (20000 nM); 0.0105 ± 0.035 with Hexafluoroamylene glycol (60000 nM); 0.0005 ± 0.011 in assay [3] (6700 nM); -0.0055 ± 0.022 in assay [3] (20000 nM); -0.008 ± 0.0085 in assay [3] (60000 nM). For the same test system, the “level (log10)” value amounted to 0.001 ± 0.0071 in assay [4] (6700 nM), 0.005 ± 0.0071 in assay [4] (20000 nM) and 0.023 ± 0.04 in assay [4] (60000 nM).

On to BF4T:PAI-I, for which the “level (log10)” value was 0 ± 0.0099 in assay [1] (6700 nM); 0.001 ± 0.0014 in assay [1] (20000 nM); 0.0155 ± 0.026 in assay [1] (60000 nM); 0.002 ± 0.0099 in assay [2] (6700 nM); 0.003 ± 0.0057 in assay [2] (20000 nM); -0.0115 ± 0.005 in assay [2] (60000 nM). The “level (log10)” value with Hexafluoroamylene glycol (6700 nM) was -0.0025 ± 0.013; in the assay with Hexafluoroamylene glycol (20000 nM), -0.002 ± 0.021; with Hexafluoroamylene glycol (60000 nM), 0.0065 ± 0.0064; in assay [3] (6700 nM), -0.0035 ± 0.011; in assay [3] (20000 nM) it was -0.007 ± 0.0057; in assay [3] (60000 nM), -0.02 ± 0.0014. The “level (log10)” value in assay [4] (6700 nM) came out at 0.003 ± 0.0085; in assay [4] (20000 nM), 0.007; in assay [4] (60000 nM), 0.007 ± 0.018.

Take BF4T:SRB: the “level (log10)” value in assay [1] (6700 nM) was -0.008 ± 0.011; in assay [1] (20000 nM) it was -0.008 ± 0.0099; in assay [1] (60000 nM), 0.006 ± 0.018; in assay [2] (6700 nM) it was -0.005 ± 0.0042; in assay [2] (20000 nM), -0.012 ± 0.0042; in assay [2] (60000 nM) it was -0.0345 ± 0.005. Also, the “level (log10)” value with Hexafluoroamylene glycol (6700 nM) is 0.0025 ± 0.018; with Hexafluoroamylene glycol (20000 nM), 0.002 ± 0.0085; in the assay with Hexafluoroamylene glycol (60000 nM) it was 0 ± 0.0057; in assay [3] (6700 nM) it was -0.004 ± 0.0057; in assay [3] (20000 nM) it was 0.0005 ± 0.005; in assay [3] (60000 nM) it was 0.0025 ± 0.005. In addition, the “level (log10)” value in assay [4] (6700 nM) was -0.008 ± 0.011; in assay [4] (20000 nM), -0.0105 ± 0.0078; in assay [4] (60000 nM), 0.0015 ± 0.019.
